# Source: patent US20240425524A1, “SPIROTRICYCLE RIPK1 INHIBITORS AND METHODS OF USES THEREOF” (Merck Sharp & Dohme LLC, priority 2021, published 2024)
# Molecular target: RIPK1 (Homo sapiens (Human), UniProt Q13546)
# Assay: RIPK1-ADP-Glo Enzymatic Assay
# Type: biochemical
# Settings: recombinant GST-RIPK1 kinase domain (residues 1-327), 25 nM, ten-point titration, 30 minutes pre-incubation
# Protocol: The enzymatic activity of RIPK1 was measured using an assay derived from ADP-Glo kit (™Promega), which provides a luminescent-based ADP detection system. Specifically, the ADP generated by RIPK1 kinase was proportionally detected as luminescent signals in a homogenous fashion. In this context, the assessment of the inhibitory effect of small molecules (EC50) was measured by the effectiveness of the compounds to inhibit the ATP to ADP conversion by RIPK1.
# In this assay, the potency (EC50) of each compound was determined from a ten-point (1:3 serial dilution: top compound concentration of 100000 nM) titration curve using the following outlined procedure. To each well of a white ProxiPlus 384 well-plate, 30 nL of compound (1% DMSO in final assay volume of 3 μL) was dispensed, followed by the addition of 2 μL of 1x assay buffer (25 mM Hepes 7.3, 20 mM MgCl2, 50 mM NaCl, 1 mM DTT, 0.005% Tween20, and 0.02% BSA) containing 37.5 nM of GST-RIPK1 (recombinant GST-RIPK1 kinase domain (residues 1-327) enzyme produced from baculovirus-transfected Sf21 cells: MW=62 kDa). Plates were placed in an ambient temperature humidified chamber for a 30 minutes pre-incubation with compound. Subsequently, each reaction was initiated by the addition of 1 μL 1× assay buffer containing […] dephosphorylated-MBP substrate. The final reaction in each well of 3 μL consists of 25 nM of GST-RIPK1, 300 µM ATP, and 3 μM dephosphorylated-MBP. Kinase reactions were allowed to proceed for 150 minutes prior to adding ADP-Glo reagents per Promega's outlined kit protocol. Dose-response curves were generated by plotting percent effect (% product conversion: Y-axis) vs. Logio compound concentrations (X-axis). EC50 values were calculated using a non-linear regression, four-parameters sigmoidal dose-response model and are provided for example compounds of the invention (labeled “RIPK1 EC50 (nM)” throughout the above examples).
# Sequence of RIPK1 (Q13546 1-327): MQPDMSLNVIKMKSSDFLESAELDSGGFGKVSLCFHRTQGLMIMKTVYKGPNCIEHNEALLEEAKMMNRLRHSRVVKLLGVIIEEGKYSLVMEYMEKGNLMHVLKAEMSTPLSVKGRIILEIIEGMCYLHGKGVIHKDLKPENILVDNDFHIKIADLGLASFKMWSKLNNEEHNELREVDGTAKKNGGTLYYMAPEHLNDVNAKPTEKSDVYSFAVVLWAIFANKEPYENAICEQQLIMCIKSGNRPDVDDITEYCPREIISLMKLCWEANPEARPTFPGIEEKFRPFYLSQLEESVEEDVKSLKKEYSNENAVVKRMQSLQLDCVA
row,Compound,EC50
1,"N#Cc1cccc(N2CCC3(CC2)CN2CC[C@@H](c4cc(F)cc(F)c4)N2C3=O)n1 [Example 1.58, (S)-6-(7′-(3,5-difluorophenyl)-1′-oxodihydro-1′H,3′H,5′H-spiro[piperidine-4,2′-pyrazolo[1,2-a]pyrazol]-1-yl)picolinonitrile]",34 nM
2,"CC(C)Oc1cc(N2CCC3(CC2)CN2CC[C@@H](c4cc(F)cc(F)c4)N2C3=O)ncc1C#N [Example 1.59, (S)-6-(7′-(3,5-difluorophenyl)-1′-oxodihydro-1′H,3′H,5′H-spiro[piperidine-4,2′-pyrazolo[1,2-a]pyrazol]-1-yl)-4-isopropoxynicotinonitrile]",18 nM
3,"O=C1N2[C@H](c3cc(F)cc(F)c3)CCN2CC12CCN(c1cc(Br)cc(F)n1)CC2 [Example 1.60, (S)-1-(4-bromo-6-fluoropyridin-2-yl)-7′-(3,5-difluorophenyl)dihydro-1′H,3′H,5′H-spiro[piperidine-4,2′-pyrazolo[1,2-a]pyrazol]-1′-one]",17 nM
4,"CN(C)c1cc(Cl)nc(N2CCC3(CC2)CN2CC[C@@H](c4cc(F)cc(F)c4)N2C3=O)n1 [Example 1.61, (S)-1-(4-chloro-6-(dimethylamino)pyrimidin-2-yl)-7′-(3,5-difluorophenyl)dihydro-1′H,3′H,5′H-spiro[piperidine-4,2′-pyrazolo[1,2-a]pyrazol]-1′-one]",904 nM
5,"CC(=O)c1cnc(N2CCC3(CC2)CN2CC[C@@H](c4cc(F)cc(F)c4)N2C3=O)cc1Cl [Example 1.62, (S)-1-(5-acetyl-4-chloropyridin-2-yl)-7′-(3,5-difluorophenyl)dihydro-1′H,3′H,5′H-spiro[piperidine-4,2′-pyrazolo[1,2-a]pyrazol]-1′-one]",20 nM
6,"O=C1N2[C@H](c3cc(F)cc(F)c3)CCN2CC12CCN(c1cccc(C(F)(F)F)n1)CC2 [Example 1.63, (S)-7′-(3,5-difluorophenyl)-1-(6-(trifluoromethyl)pyridin-2-yl)dihydro-1′H,3′H,5′H-spiro[piperidine-4,2′-pyrazolo[1,2-a]pyrazol]-1′-one]",83 nM
7,"CC(=O)c1cccc(N2CCC3(CC2)CN2CC[C@@H](c4cc(F)cc(F)c4)N2C3=O)n1 [Example 1.64, (S)-1-(6-acetylpyridin-2-yl)-7′-(3,5-difluorophenyl)dihydro-1′H,3′H,5′H-spiro[piperidine-4,2′-pyrazolo[1,2-a]pyrazol]-1′-one]",25 nM
8,"O=C1N2[C@H](c3cc(F)cc(F)c3)CCN2CC12CCN(c1nc(Cl)nc3c1CCC3)CC2 [Example 1.65, (S)-1-(2-chloro-6,7-dihydro-5H-cyclopenta[d]pyrimidin-4-yl)-7′-(3,5-difluorophenyl)dihydro-1′H,3′H,5′H-spiro[piperidine-4,2′-pyrazolo[1,2-a]pyrazol]-1′-one]",144 nM
9,"CSc1ncc(C)c(N2CCC3(CC2)CN2CC[C@@H](c4cc(F)cc(F)c4)N2C3=O)n1 [Example 1.66, (S)-7′-(3,5-difluorophenyl)-1-(5-methyl-2-(methylthio)pyrimidin-4-yl)dihydro-1′H,3′H,5′H-spiro[piperidine-4,2′-pyrazolo[1,2-a]pyrazol]-1′-one]",673 nM
10,"Cc1cc2c(N3CCC4(CC3)CN3CC[C@@H](c5cc(F)cc(F)c5)N3C4=O)ncnc2s1 [Example 1.67, (S)-7′-(3,5-difluorophenyl)-1-(6-methylthieno[2,3-d]pyrimidin-4-yl)dihydro-1′H,3′H,5′H-spiro[piperidine-4,2′-pyrazolo[1,2-a]pyrazol]-1′-one]",38 nM
11,"O=C1N2[C@H](c3cc(F)cc(F)c3)CCN2CC12CCN(c1ncnc3sccc13)CC2 [Example 1.68, (S)-7′-(3,5-difluorophenyl)-1-(thieno[2,3-d]pyrimidin-4-yl)dihydro-1′H,3′H,5′H-spiro [piperidine-4,2′-pyrazolo[1,2-a]pyrazol]-1′-one]",24 nM
12,"O=C1N2[C@H](c3cc(F)cc(F)c3)CCN2CC12CCN(c1cc(N3CCCC3)ncn1)CC2 [Example 1.69, (S)-7′-(3,5-difluorophenyl)-1-(6-(pyrrolidin-1-yl)pyrimidin-4-yl)dihydro-1′H,3′H,5′H-spiro[piperidine-4,2′-pyrazolo[1,2-a]pyrazol]-l′-one]",296 nM
13,"O=C1N2[C@H](c3cc(F)cc(F)c3)CCN2CC12CCN(c1cncc(-n3cccn3)n1)CC2 [Example 1.70, (S)-1-(6-(1H-pyrazol-1-yl)pyrazin-2-yl)-7′-(3,5-difluorophenyl)dihydro-1′H,3′H,5′H-spiro[piperidine-4,2′-pyrazolo[1,2-a]pyrazol]-1′-one]",82 nM
14,"O=C1N2[C@H](c3cc(F)cc(F)c3)CCN2CC12CCN(c1cccc(F)n1)CC2 [Example 1.71, (S)-7′-(3,5-difluorophenyl)-1-(6-fluoropyridin-2-yl)dihydro-1′H,3′H,5′H-spiro[piperidine-4,2′-pyrazolo[1,2-a]pyrazol]-1′-one]",28 nM
15,"CCc1nccc(N2CCC3(CC2)CN2CC[C@@H](c4cc(F)cc(F)c4)N2C3=O)n1 [Example 1.72, (S)-7′-(3,5-difluorophenyl)-1-(2-ethylpyrimidin-4-yl)dihydro-1′H,3′H,5′H-spiro[piperidine-4,2′-pyrazolo[1,2-a]pyrazol]-1′-one]",208 nM
16,"Cc1csc2ncnc(N3CCC4(CC3)CN3CC[C@@H](c5cc(F)cc(F)c5)N3C4=O)c12 [Example 1.73, (S)-7′-(3,5-difluorophenyl)-1-(5-methylthieno[2,3-d]pyrimidin-4-yl)dihydro-1′H,3′H,5′H-spiro[piperidine-4,2′-pyrazolo[1,2-a]pyrazol]-l′-one]",4 nM
17,"N#Cc1cc(N2CCC3(CC2)CN2CC[C@@H](c4cc(F)cc(F)c4)N2C3=O)ncn1 [Example 1.74, (S)-6-(7′-(3,5-difluorophenyl)-1′-oxodihydro-1′H,3′H,5′H-spiro[piperidine-4,2′-pyrazolo[1,2-a]pyrazol]-1-yl)pyrimidine-4-carbonitrile]",30 nM
18,"N#Cc1ccnc(N2CCC3(CC2)CN2CC[C@@H](c4cc(F)cc(F)c4)N2C3=O)n1 [Example 1.75, (S)-2-(7′-(3,5-difluorophenyl)-1′-oxodihydro-1′H,3′H,5′H-spiro[piperidine-4,2′-pyrazolo[1,2-a]pyrazol]-1-yl)pyrimidine-4-carbonitrile]",49 nM
19,"N#Cc1cnc(N2CCC3(CC2)CN2CC[C@@H](c4cc(F)cc(F)c4)N2C3=O)nc1 [Example 1.76, (S)-2-(7′-(3,5-difluorophenyl)-1′-oxodihydro-1′H,3′H,5′H-spiro[piperidine-4,2′-pyrazolo[1,2-a]pyrazol]-1-yl)pyrimidine-5-carbonitrile]",35 nM
20,"CC(F)(F)c1ccnc(N2CCC3(CC2)CN2CC[C@@H](c4cc(F)cc(F)c4)N2C3=O)n1 [Example 1.77, (S)-1-(4-(1,1-difluoroethyl)pyrimidin-2-yl)-7′-(3,5-difluorophenyl)dihydro-1′H,3′H,5′H-spiro [piperidine-4,2′-pyrazolo[1,2-a]pyrazol]-1′-one]",200 nM
21,"N#Cc1nccc(N2CCC3(CC2)CN2CC[C@@H](c4cc(F)cc(F)c4)N2C3=O)n1 [Example 1.78, (S)-4-(7′-(3,5-difluorophenyl)-1′-oxodihydro-1′H,3′H,5′H-spiro[piperidine-4,2′-pyrazolo[1,2-a]pyrazol]-1-yl)pyrimidine-2-carbonitrile]",73 nM
22,"O=C1N2[C@H](c3cc(F)cc(F)c3)CCN2CC12CCN(c1nccn3ncnc13)CC2 [Example 1.79, (S)-1-([1,2,4]triazolo[1,5-a]pyrazin-8-yl)-7′-(3,5-difluorophenyl)dihydro-1′H,3′H,5′H-spiro[piperidine-4,2′-pyrazolo[1,2-a]pyrazol]-1′-one]",30 nM
23,"O=C1N2[C@H](c3cc(F)cc(F)c3)CCN2CC12CCN(c1nc3ccccc3o1)CC2 [Example 1.80, (S)-1-(benzo[d]oxazol-2-yl)-7′-(3,5-difluorophenyl)dihydro-1′H,3′H,5′H-spiro[piperidine-4,2′-pyrazolo[1,2-a]pyrazol]-1′-one]",50 nM
24,"O=C1N2[C@H](c3cc(F)cc(F)c3)CCN2CC12CCN(c1noc3ccccc13)CC2 [Example 1.81, (S)-1-(benzo[d]isoxazol-3-yl)-7′-(3,5-difluorophenyl)dihydro-1′H,3′H,5′H-spiro[piperidine-4,2′-pyrazolo[1,2-a]pyrazol]-1′-one]",366 nM
25,"O=C1N2[C@H](c3cc(F)cc(F)c3)CCN2CC12CCN(c1nnc(-c3ccccc3)o1)CC2 [Example 1.82, (S)-7′-(3,5-difluorophenyl)-1-(5-phenyl-1,3,4-oxadiazol-2-yl)dihydro-1′H,3′H,5′H-spiro[piperidine-4,2′-pyrazolo[1,2-a]pyrazol]-1′-one]",333 nM
26,"COc1cc(N2CCC3(CC2)CN2CC[C@@H](c4cc(F)cc(F)c4)N2C3=O)ncn1 [Example 1.83, (S)-7′-(3,5-difluorophenyl)-1-(6-methoxypyrimidin-4-yl)dihydro-1′H,3′H,5′H-spiro[piperidine-4,2′-pyrazolo[1,2-a]pyrazol]-1′-one]",28 nM
